The source of these data is patent US8178690B2, “Compounds and methods for inhibiting the interaction of BCL proteins with binding partners” (Infinity Pharmaceuticals, Inc., priority 2006, dated 2012).

One may read the Ki as the dissociation constant of the complex between target and ligand, obtained from inhibition or displacement.

The target in one assay is Bcl-2 (Homo sapiens, UniProt P10415). The assay is described as follows: Bcl-2 binding affinity analysis (fluorescence polarization binding assay). The settings on record: read-out: BcI2 (Ki, Bcl-2 binding affinity). From the text: (§1) Bcl-2 and Bcl-xL binding may be determined using a variety of known methods. One such assay is a sensitive and quantitative in vitro binding assay using fluorescence polarization (FP) described by Wang, J.-L.; Zhang, Z-J.; Choksi, S.; Sjam. S.; Lu, Z.; Croce, C. M.; Alnemri, E. S.; Komgold, R.; Huang, Z. Cell permeable Bcl-2 binding peptides: a chemical approach to apoptosis induction in tumor cells. Cancer Res. 2000, 60, 1498-1502).
(§2) Bcl-2 and Bcl-xL binding affinity analysis data is presented below for various compounds of the invention.
(In fluorescence polarisation assays a small probe gives low polarisation when free and higher when bound to something large.)

Another assay deals with Bcl-xL (Homo sapiens, UniProt Q07817). The experiment in a line: Bcl-xL binding affinity analysis (fluorescence polarization binding assay). The note with it: read-out: BcI-XI (Ki, Bcl-xL binding affinity).
Excerpt: as §1, §2

Sequence of Bcl-2 (P10415 whole entry): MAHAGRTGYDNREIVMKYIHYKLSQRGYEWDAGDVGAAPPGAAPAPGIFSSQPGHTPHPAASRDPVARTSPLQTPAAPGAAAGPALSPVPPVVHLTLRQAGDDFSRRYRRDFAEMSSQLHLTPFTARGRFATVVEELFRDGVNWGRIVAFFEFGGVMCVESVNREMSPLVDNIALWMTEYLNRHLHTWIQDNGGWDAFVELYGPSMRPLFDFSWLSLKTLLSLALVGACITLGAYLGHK
Sequence of Bcl-xL (Q07817 whole entry): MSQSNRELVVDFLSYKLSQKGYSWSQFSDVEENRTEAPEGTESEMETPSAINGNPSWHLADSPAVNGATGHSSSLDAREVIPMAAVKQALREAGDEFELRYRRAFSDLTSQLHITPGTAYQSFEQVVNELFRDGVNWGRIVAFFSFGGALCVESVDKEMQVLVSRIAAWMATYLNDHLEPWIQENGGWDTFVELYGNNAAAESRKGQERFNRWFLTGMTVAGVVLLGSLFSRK

For `COc1c(CN2O[C@@H](CO)[C@@H]([C@H](C)O)[C@H]2C(=O)N[C@H]2C[C@H]3C[C@@H]([C@@H]2C)C3(C)C)cccc1-c1cc(CN)cc(C(=O)N[C@@H](Cc2ccccc2)CN(C)C)c1` [295 amine], the Ki on Bcl-2 is less than 0.001 µM; on Bcl-xL, less than 1 µM.
In the same order, the values of `COc1c(CN2O[C@@H](CO)[C@@H]([C@H](C)O)[C@H]2C(=O)N[C@H]2C[C@H]3C[C@@H]([C@@H]2C)C3(C)C)cccc1-c1cc(C(=O)N[C@H](CN(C)C)CC(C)(C)C)cc(N(C)C)c1` [Compound 1] are less than 0.001 µM and less than 1 µM.
In the same order, the values of `COC[C@@H](Cc1ccccc1)NC(=O)c1cc(-c2cccc(CN3O[C@@H](CO)[C@@H]([C@H](C)O)[C@H]3C(=O)N[C@H]3C[C@H]4C[C@@H]([C@@H]3C)C4(C)C)c2OC)cc(N(C)C)c1` [Compound 12] are 0.005 to 0.009 µM and 5 to 10 µM.
For `CCOc1c(CN2O[C@@H](CO)[C@@H]([C@H](C)O)[C@H]2C(=O)N[C@H]2C[C@H]3C[C@@H]([C@@H]2C)C3(C)C)cccc1-c1cc(C(=O)N[C@@H](Cc2ccccc2)CN(C)C)cc(N(C)C)c1` [Compound 15], the inhibitory constant (Ki) was less than 0.001 µM on Bcl-2 and less than 1 µM on Bcl-xL.
Take `CCOc1c(CN2O[C@@H](CO)[C@@H]([C@H](C)O)[C@H]2C(=O)N[C@H]2C[C@H]3C[C@@H]([C@@H]2C)C3(C)C)cccc1-c1cc(C(=O)N[C@H](Cc2ccccc2)CN(C)C)cc(N(C)C)c1` [Compound 23]: the Ki was less than 0.001 µM at Bcl-2 and less than 1 µM on Bcl-xL.
In the same order, the values of `CCOc1c(CN2O[C@@H](CO)[C@@H]([C@H](C)O)[C@H]2C(=O)N[C@H]2C[C@H]3C[C@@H]([C@@H]2C)C3(C)C)cccc1-c1cc(C(=O)N[C@H](CN(C)C)CC(C)(C)C)cc(N(C)C)c1` [Compound 24] are less than 0.001 µM and less than 1 µM.
Regarding `CCOc1c(CN2O[C@@H](CO)[C@@H]([C@H](C)O)[C@H]2C(=O)N[C@H]2C[C@H]3C[C@@H]([C@@H]2C)C3(C)C)cccc1-c1cc(C(=O)N[C@@H](Cc2cccs2)CN(C)C)cc(N(C)C)c1` [Compound 25], the Ki at Bcl-2 was less than 0.001 µM; at Bcl-xL, less than 1 µM.
For `C[C@@H]1[C@@H](NC(=O)[C@@H]2[C@H]([C@H](C)O)[C@H](CO)ON2Cc2cccc(-c3cc(C(=O)N[C@@H](Cc4ccccc4)CN(C)C)cc(N(C)C)c3)c2OCC2CC2)C[C@H]2C[C@@H]1C2(C)C` [Compound 26] the same measures were less than 0.001 µM and less than 1 µM.
In the same order, the values of `C[C@@H]1[C@@H](NC(=O)[C@@H]2[C@H]([C@H](C)O)[C@H](CO)ON2Cc2cccc(-c3cc(C(=O)N[C@H](CN(C)C)CC(C)(C)C)cc(N(C)C)c3)c2OCC2CC2)C[C@H]2C[C@@H]1C2(C)C` [Compound 33] are less than 0.001 µM and less than 1 µM.
In the same order, the values of `CC(C)C[C@H](CN(C)C)NC(=O)c1cc(-c2cccc(CN3O[C@@H](CO)[C@@H]([C@H](C)O)[C@H]3C(=O)N[C@H]3C[C@H]4C[C@@H]([C@@H]3C)C4(C)C)c2OCC2CC2)cc(N(C)C)c1` [Compound 34] are less than 0.001 µM and less than 1 µM.
As to `CCOc1c(CN2O[C@@H](CO)[C@@H]([C@H](C)O)[C@H]2C(=O)N[C@H]2C[C@H]3C[C@@H]([C@@H]2C)C3(C)C)cccc1-c1cc(C(=O)N[C@@H](CC(C)C)CN(C)C)cc(N(C)C)c1` [Compound 35], the inhibition constant Ki is less than 0.001 µM on Bcl-2 and less than 1 µM at Bcl-xL.
In the same order, the values of `COc1c(CN2O[C@@H](CO)[C@@H]([C@H](C)O)[C@H]2C(=O)N[C@H]2C[C@H]3C[C@@H]([C@@H]2C)C3(C)C)cccc1-c1cc(C(=O)N[C@@H](Cc2ccccc2)CN(C)C)cc(N(C)C)c1` [Compound 37] are less than 0.001 µM and less than 1 µM.
As for `C[C@@H]1[C@@H](NC(=O)[C@@H]2[C@H]([C@H](C)O)[C@H](CN)ON2Cc2cccc(-c3cc(C(=O)N[C@@H](Cc4ccccc4)CN(C)C)cc(N(C)C)c3)c2F)C[C@H]2C[C@@H]1C2(C)C` [Compound 38], the Ki on Bcl-2 was less than 0.001 µM; at Bcl-xL, more than 10 µM.
For `C[C@@H]1[C@@H](NC(=O)[C@@H]2[C@H]([C@H](C)O)[C@H](CN)ON2Cc2cccc(-c3cc(C(=O)NCCN(C)C)cc(N(C)C)c3)c2F)C[C@H]2C[C@@H]1C2(C)C` [Compound 53] the same measures were 0.001 to 0.005 µM and more than 10 µM.
In the same order, the values of `COc1c(CN2O[C@@H](CN)[C@@H]([C@H](C)O)[C@H]2C(=O)N[C@H]2C[C@H]3C[C@@H]([C@@H]2C)C3(C)C)cccc1-c1cc(C(=O)N[C@@H](Cc2ccccc2)CN(C)C)cc(N(C)C)c1` [Compound 54] are 0.001 to 0.005 µM and more than 10 µM.
With `CCN1CCC[C@@H]1CNC(=O)c1cc(-c2cccc(CN3O[C@@H](CN)[C@@H]([C@H](C)O)[C@H]3C(=O)N[C@H]3C[C@H]4C[C@@H]([C@@H]3C)C4(C)C)c2OC)cc(N(C)C)c1` [Compound 60], the values for the Ki on Bcl-2 and on Bcl-xL were less than 0.001 µM and 1 to 5 µM, respectively.
In the same order, the values of `COc1c(CN2O[C@@H](CN)[C@@H]([C@H](C)O)[C@H]2C(=O)N[C@H]2C[C@H]3C[C@@H]([C@@H]2C)C3(C)C)cccc1-c1cc(C(=O)N[C@H](CN(C)C)CC(C)(C)C)cc(N(C)C)c1` [Compound 61] are less than 0.001 µM and less than 1 µM.
In the same order, the values of `COc1c(CN2O[C@@H](CN)[C@@H]([C@H](C)O)[C@H]2C(=O)N[C@H]2C[C@H]3C[C@@H]([C@@H]2C)C3(C)C)cccc1-c1cc(C(=O)NCCc2ccccc2)cc(N(C)C)c1` [Compound 62] are less than 0.001 µM and 5 to 10 µM.
For `COc1c(CN2O[C@@H](CN)[C@@H]([C@H](C)O)[C@H]2C(=O)N[C@H]2C[C@H]3C[C@@H]([C@@H]2C)C3(C)C)cccc1-c1cc(C(=O)NCCN(C)C)cc(N(C)C)c1` [Compound 63] the same measures were less than 0.001 µM and 5 to 10 µM.
For the molecule `COc1c(CN2O[C@@H](CN)[C@@H]([C@H](C)O)[C@H]2C(=O)N[C@H]2C[C@H]3C[C@@H]([C@@H]2C)C3(C)C)cccc1-c1cc(C(=O)NCCc2ccccn2)cc(N(C)C)c1` [Compound 64], the Ki on Bcl-2 was less than 0.001 µM; on Bcl-xL it was more than 10 µM.
For `COC(=O)[C@H](Cc1ccccc1)NC(=O)c1cc(-c2cccc(CN3O[C@@H](CN)[C@@H]([C@H](C)O)[C@H]3C(=O)N[C@H]3C[C@H]4C[C@@H]([C@@H]3C)C4(C)C)c2OC)cc(N(C)C)c1` [Compound 65] the same measures were less than 0.001 µM and more than 10 µM.
For `COc1c(CN2O[C@@H](CN)[C@@H]([C@H](C)O)[C@H]2C(=O)N[C@H]2C[C@H]3C[C@@H]([C@@H]2C)C3(C)C)cccc1-c1cc(C(=O)N(C)OC)cc(N(C)C)c1` [Compound 66] the same measures were less than 0.001 µM and 5 to 10 µM.
For `COc1c(CN2O[C@@H](CN)[C@@H]([C@H](C)O)[C@H]2C(=O)N[C@H]2C[C@H]3C[C@@H]([C@@H]2C)C3(C)C)cccc1-c1cc(C(=O)N[C@@H](Cc2cscn2)C(=O)N(C)C)cc(N(C)C)c1` [Compound 67] the same measures were less than 0.001 µM and 5 to 10 µM.
For `COc1c(CN2O[C@@H](CN)[C@@H]([C@H](C)O)[C@H]2C(=O)N[C@H]2C[C@H]3C[C@@H]([C@@H]2C)C3(C)C)cccc1-c1cc(C(=O)N[C@H](CC(C)C)CN(C)C)cc(N(C)C)c1` [Compound 68], the Ki at Bcl-2 is less than 0.001 µM; on Bcl-xL, less than 1 µM.
For `COc1c(CN2O[C@@H](CN)[C@@H]([C@H](C)O)[C@H]2C(=O)N[C@H]2C[C@H]3C[C@@H]([C@@H]2C)C3(C)C)cccc1-c1cc(C(=O)N(C)C)cc(N(C)C)c1` [Compound 69] the same measures were 0.005 to 0.009 µM and more than 10 µM.
As to `CNC(=O)c1cc(-c2cccc(CN3O[C@@H](CN)[C@@H]([C@H](C)O)[C@H]3C(=O)N[C@H]3C[C@H]4C[C@@H]([C@@H]3C)C4(C)C)c2OC)cc(N(C)C)c1` [Compound 70], the values for the Ki at Bcl-2 and on Bcl-xL were 0.001 to 0.005 µM and more than 10 µM, respectively.
For `COc1c(CN2O[C@@H](CN)[C@@H]([C@H](C)O)[C@H]2C(=O)N[C@H]2C[C@H]3C[C@@H]([C@@H]2C)C3(C)C)cccc1-c1cc(C(=O)O)cc(N(C)C)c1` [Compound 71], the Ki is more than 0.009 µM on Bcl-2 and 1 to 5 µM at Bcl-xL.
For `COc1c(CN2O[C@@H](CN)[C@@H]([C@H](C)O)[C@H]2C(=O)N[C@H]2C[C@H]3C[C@@H]([C@@H]2C)C3(C)C)cccc1-c1cc(C(=O)N[C@@H](CC(C)C)CN(C)C)cc(N(C)C)c1` [Compound 72] the same measures were less than 0.001 µM and less than 1 µM.
For `COc1c(CN2O[C@@H](CNC(C)=O)[C@@H]([C@H](C)O)[C@H]2C(=O)N[C@H]2C[C@H]3C[C@@H]([C@@H]2C)C3(C)C)cccc1-c1cc(C(=O)N[C@H](CN(C)C)CC(C)(C)C)cc(N(C)C)c1` [Compound 73] the same measures were less than 0.001 µM and less than 1 µM.
In the same order, the values of `COc1c(CN2O[C@@H](CNC(=O)C(F)(F)F)[C@@H]([C@H](C)O)[C@H]2C(=O)N[C@H]2C[C@H]3C[C@@H]([C@@H]2C)C3(C)C)cccc1-c1cc(C(=O)NCCc2ccccc2)cc(N(C)C)c1` [Compound 74] are more than 0.009 µM and 5 to 10 µM.
In the case of `CNC(=O)c1cc(-c2cccc(CN3O[C@@H](CNC(=O)CCC(=O)O)[C@@H]([C@H](C)O)[C@H]3C(=O)N[C@H]3C[C@H]4C[C@@H]([C@@H]3C)C4(C)C)c2OC)cc(N(C)C)c1` [Compound 75], the Ki on Bcl-2 fell in the range of 0.005 to 0.009 µM; on Bcl-xL, 1 to 5 µM.
In the same order, the values of `COc1c(CN2O[C@@H](CNC(C)=O)[C@@H]([C@H](C)O)[C@H]2C(=O)N[C@H]2C[C@H]3C[C@@H]([C@@H]2C)C3(C)C)cccc1-c1cc(C(=O)NCCc2ccccc2)cc(N(C)C)c1` [Compound 76] are 0.005 to 0.009 µM and more than 10 µM.
